≈ marks a conversion by molar mass, not a printed value.
What was measured:
[1] = Protection index, ratio of TD50 for neurotoxicity in ip dosed mouse to ED50 for anticonvulsant activity in ip dosed mouse; assay type: toxicity, organism-based; conditions: in vivo, read-out: Ratio TD50/ED50
Mus musculus [2] = assay: Anticonvulsant activity in ip dosed mouse; assay type: functional
Rattus norvegicus [3] = assay: Antiinflammatory activity in rat assessed as reduction in xylene induced edema at 10 mg/kg, po by CPE test relative to control; assay type: functional; parameters: scale not given: the % may be the effect or the level left
Staphylococcus aureus [4] = assay: Antibacterial activity against Staphylococcus aureus assessed as bacterial growth inhibition incubated for 16 hrs; assay type: functional
Candida albicans = assay: Antifungal activity against Candida albicans assessed as fungal growth inhibition incubated for 16 hrs; assay type: functional
Plasmodium falciparum [5] = assay: Antimalarial activity against Chloroquine resistant Plasmodium falciparum W2; assay type: functional, organism-based
Staphylococcus aureus [6] = assay: Antibacterial activity against Staphylococcus aureus ATCC 25923 assessed as bacterial growth inhibition by double micro dilution method; assay type: functional
[7] = test system: Acinetobacter haemolyticus; assay: Antibacterial activity against Acinetobacter haemolyticus ATCC 19002 assessed as bacterial growth inhibition by double micro dilution method; assay type: functional
Enterococcus faecalis = assay: Antibacterial activity against Enterococcus faecalis ATCC 29212 assessed as bacterial growth inhibition by double micro dilution method; assay type: functional
Escherichia coli = assay: Antibacterial activity against Escherichia coli ATCC 25922 assessed as bacterial growth inhibition by double micro dilution method; assay type: functional
Pseudomonas aeruginosa = assay: Antibacterial activity against Pseudomonas aeruginosa ATCC 27853 assessed as bacterial growth inhibition by double micro dilution method; assay type: functional
Klebsiella pneumoniae = assay: Antibacterial activity against Klebsiella pneumoniae ATCC 13883 assessed as bacterial growth inhibition by double micro dilution method; assay type: functional
DNA gyrase = DNA gyrase (Escherichia coli, UniProt P0AES4+P0AES6); assay: Inhibition of Escherichia coli DNA gyrase supercoiling activity by Microplate Assay kit method; assay type: protein-complex assay
Leishmania major [8] = assay: Antileishmanial activity against promastigotes stage of Leishmania major; assay type: functional, organism-based
Leishmania major [9] = assay: Potency index, ratio of test compound IC50 to amphotericin B IC50 for antileishmanial activity against promastigotes stage of leishmania major; assay type: functional
Leishmania major [10] = assay: Potency index, ratio of test compound IC50 to miltefosine IC50 for antileishmanial activity against promastigotes stage of leishmania major; assay type: functional
Plasmodium falciparum [11] = assay: microbe, parasite or virus in culture
Staphylococcus aureus [12] = assay: Antibacterial activity against Staphylococcus aureus 6538 assessed as bacterial growth inhibition incubated for 24 hrs; assay type: functional
Staphylococcus aureus [13] = assay: Antibacterial activity against Methicillin-resistant Staphylococcus aureus assessed as bacterial growth inhibition incubated for 24 hrs; assay type: functional
Rattus norvegicus [14] = assay: Antiinflammatory activity in rat assessed as reduction in edema at 17 mg/kg, ip measured after 5 hrs relative to control; assay type: functional; parameters: scale not given: the % may be the effect or the level left
HCT-116 = assay: Anticancer activity against human HCT-116 cells assessed as cell growth inhibition
Mus musculus [15] = assay: Anticonvulsant activity in po dosed mouse assessed as MES-induced seizures; assay type: functional
[16] = Protection index, ratio of TD50 for neurotoxicity in po dosed mouse to ED50 for anticonvulsant activity in ip dosed mouse; assay type: toxicity, organism-based; conditions: in vivo, read-out: Ratio TD50/ED50
Mus musculus [17] = assay: Anticonvulsant activity in ip dosed mouse assessed as protection against PTZ-induced seizure; assay type: functional
DNA topoisomerase II = DNA topoisomerase II (Homo sapiens, UniProt P11388+Q02880); assay: Inhibition of human Topoisomerase 2 incubated for 30 mins by ELISA assay; assay type: protein assay
[18] = test system: Mycobacterium tuberculosis; assay: Antimycobacterial activity against Mycobacterium tuberculosis H37Rv by test tube dilution technique; assay type: functional
Plasmodium falciparum [19] = assay: Antimalarial activity against Plasmodium falciparum; assay type: functional, organism-based; conditions: Plasmodium falciparum; read-out: IC50

NC(=O)N1c2ccccc2C=Cc2ccccc21 [CARBAMAZEPINE]
selectivity ratio [1]: 6.4 | ED50 (Mus musculus [2]): 11.8 mg/kg

Fc1cc(Cl)cc(-c2nn3c(CN4c5ccccc5Sc5ccccc54)nnc3s2)c1
Activity (Rattus norvegicus [3]): 83.06%

COc1ccc(/C=N/n2c(S)nnc2CNC(=O)c2ccc(C)cc2)cc1OC
MIC (Staphylococcus aureus [4]): 3.12 µg/mL (≈ 7.59 µM) | MIC (Candida albicans): 3.12 µg/mL (≈ 7.59 µM)

COc1ccc(Nc2cc(C)nc3nc(C(F)(F)F)nn23)cc1
IC50 (Plasmodium falciparum [5]): 23 nM

O=c1[nH]nc2n1-c1ccc(OCc3ccc(F)cc3)cc1SC2
selectivity ratio [1]: 15.4 | ED50 (Mus musculus [2]): 9.2 mg/kg

CCn1c(CN2CCN(c3ccccc3)CC2)nn(CN2CCN(c3cc4c(cc3F)c(=O)c(C(=O)O)cn4C3CC3)CC2)c1=S
MIC (Staphylococcus aureus [6]): 0.125 µg/mL (≈ 0.193 µM) | MIC [7]: 0.125 µg/mL (≈ 0.193 µM) | MIC (Enterococcus faecalis): 0.125 µg/mL (≈ 0.193 µM) | MIC (Escherichia coli): 0.125 µg/mL (≈ 0.193 µM) | MIC (Pseudomonas aeruginosa): 0.125 µg/mL (≈ 0.193 µM) | MIC (Klebsiella pneumoniae): 0.125 µg/mL (≈ 0.193 µM)

CCn1cc(-c2nc(/N=C/c3ccc(Br)cc3)n[nH]2)c(=O)c2cc(Br)c(C)nc21
IC50 (DNA gyrase): 6220 nM

NC1=NNC(c2ccccc2O)N1C(Cc1cc2ccccc2[nH]1)C(=O)O (stereo unspecified)
IC50 (Leishmania major [8]): 0.0312 µg/mL (≈ 0.0854 µM) | Ratio IC50 (Leishmania major [9]): 36 | Ratio IC50 (Leishmania major [10]): 36

COc1ccccc1-n1c(S)nnc1-c1cc(S(N)(=O)=O)c(Cl)cc1N
IC50 (Plasmodium falciparum [11]): 0.025 µg/mL (≈ 0.0607 µM)

CSc1nc(Cl)cc(Sc2nnc(-c3cc(C(F)(F)F)cc(C(F)(F)F)c3)[nH]2)n1
MIC (Staphylococcus aureus [12]): 1.8 µM (≈ 0.849 µg/mL) | MIC (Staphylococcus aureus [13]): 0.75 µg/mL (≈ 1.59 µM)

Cc1cc(Nc2ccc(Cl)c(Cl)c2)n2nc(C(F)(F)F)nc2n1
IC50 (Plasmodium falciparum [5]): 23 nM

C=Cn1c(SCC(=O)Nc2ccc(/C(C)=N/O)cc2)nnc1-c1cc(-c2ccc(OC)cc2)nc2ccccc12
Activity (Rattus norvegicus [14]): 111%

O=c1c2c3c(sc2n2c(CN4CCN(c5ccc(Cl)cc5)CC4)nnc2n1Cc1ccccc1)CCCC3
IC50 (HCT-116): 6560 nM

O=c1c2ccccc2n2cnnc2n1-c1ccc(Br)cc1
ED50 (Mus musculus [15]): 94.6 mg/kg | selectivity ratio [16]: > 26

O=c1c2ccccc2n2cnnc2n1-c1ccc(Cl)cc1
ED50 (Mus musculus [15]): 88 mg/kg | selectivity ratio [16]: > 25.5

FC(F)(F)c1cc(-c2nnc(Sc3cc(Cl)nc(Sc4ccccc4)n3)[nH]2)cc(C(F)(F)F)c1
MIC (Staphylococcus aureus [12]): 1.8 µM (≈ 0.961 µg/mL) | MIC (Staphylococcus aureus [13]): 0.43 µg/mL (≈ 0.805 µM)

Fc1cc(F)cc(-c2nn3c(CN4c5ccccc5Sc5ccccc54)nnc3s2)c1
Activity (Rattus norvegicus [3]): 82.24%

CCCOc1ccc(-c2csc3nncn23)cc1
selectivity ratio [1]: 1.9 | ED50 (Mus musculus [17]): 63.4 mg/kg | TD50 (Mus musculus [17]): 106 mg/kg

O=C(O)c1cn(C2CC2)c2cc(N3CCN(Cn4nc(CN5CCN(c6ccccc6)CC5)n(-c5ccccc5)c4=S)CC3)c(F)cc2c1=O
MIC (Staphylococcus aureus [6]): 0.125 µg/mL (≈ 0.18 µM) | MIC [7]: 0.125 µg/mL (≈ 0.18 µM) | MIC (Enterococcus faecalis): 0.125 µg/mL (≈ 0.18 µM) | MIC (Escherichia coli): 0.125 µg/mL (≈ 0.18 µM) | MIC (Pseudomonas aeruginosa): 0.125 µg/mL (≈ 0.18 µM) | MIC (Klebsiella pneumoniae): 0.125 µg/mL (≈ 0.18 µM)

O=C(CSc1nc2ccccc2n2cnnc12)Nc1ccc(S(=O)(=O)Nc2ccccn2)cc1
IC50 (DNA topoisomerase II): 970 nM

c1cncc(-c2nn3c(COc4cnccn4)nnc3s2)c1
MIC [18]: 0.4 µg/mL (≈ 1.28 µM)

O=c1[nH]nc2n1-c1ccc(OCc3ccc(F)cc3)cc1OCC2
selectivity ratio [1]: 12.6 | ED50 (Mus musculus [2]): 26.3 mg/kg

O=C(NCc1nnc(S)n1/N=C/c1ccc([N+](=O)[O-])cc1)c1ccccc1
MIC (Staphylococcus aureus [4]): 3.12 µg/mL (≈ 8.17 µM) | MIC (Candida albicans): 3.12 µg/mL (≈ 8.17 µM)

Nc1cc(Cl)c(S(N)(=O)=O)cc1-c1nnc(S)n1-c1ccccc1
IC50 (Plasmodium falciparum [11]): 0.023 µg/mL (≈ 0.0602 µM)

Cc1cc(Nc2ccc(C(F)(F)F)cc2)n2nc(C(F)(F)F)nc2n1
IC50 (Plasmodium falciparum [5]): 23 nM

COc1ccc(-c2cc(-c3nnc(SCC(=O)Nc4ccc(/C(C)=N/O)cc4)n3-c3ccccc3)c3ccccc3n2)cc1
Activity (Rattus norvegicus [14]): 100%

C=C[C@H]1CN2CC[C@H]1C[C@H]2[C@H](O)c1ccnc2ccc(OC)cc12 [QUININE]
IC50 (Plasmodium falciparum [11]): 0.268 µg/mL (≈ 0.826 µM) | IC50 (Plasmodium falciparum [19]): 286 nM

— ChEMBL document CHEMBL5244255, “An insight on medicinal attributes of 1,2,4-triazoles” (Eur J Med Chem, 2020)
